Experimental data taken from ChEMBL document CHEMBL1201862, “PubChem BioAssay data set” (2004).
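Results reflect a 48-hour exposure of cells in 96-well plates to compound at five concentrations. The concentration for 50% growth inhibition is given as GI50.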 Activity calls are given as the source filed them. Cut-off read from the data, not from the text of the source: active = GI50 up to about 1.1 µM and inactive = higher.

Legend:
Experiment in all cases: growth of human tumour cells (NCI), 48 h
SNB-78 = system: SNB-78
KM-20L2 = system: KM-20L2
XF498 = system: XF498
DMS-273 = system: DMS-273
M19-MEL = system: M19-MEL
HOP-18 = system: HOP-18
DMS-114 = system: DMS-114
LXFL 529 = system: LXFL 529
RXF 631 = system: RXF 631

## NS(=O)(=O)OCCCCCCCOS(N)(=O)=O
SNB-78
  GI50: 526 µM (inactive)
KM-20L2
  GI50: 488 µM (inactive)
XF498
  GI50: 54.8 µM (inactive)
DMS-273
  GI50: 68.7 µM (inactive)
M19-MEL
  GI50: 383 µM (inactive)
HOP-18
  GI50: 689 µM (inactive)
DMS-114
  GI50: 130 µM (inactive)

## CCCCCCCCCC1CC(=O)OC23CCCC(=O)C12O3 (centres undefined)
SNB-78
  GI50: 60.8 µM (inactive)
KM-20L2
  GI50: > 100 µM (inactive)
XF498
  GI50: > 100 µM (inactive)
DMS-273
  GI50: > 100 µM (inactive)
M19-MEL
  GI50: > 100 µM (inactive)
HOP-18
  GI50: 62.5 µM (inactive)
DMS-114
  GI50: 71.6 µM (inactive)
LXFL 529
  GI50: > 100 µM (inactive)

## COc1ccc2c(c1)C1C(CO2)C(c2ccccc2)=NN1c1ccccc1 (centres undefined)
SNB-78
  GI50: > 100 µM (inactive)
KM-20L2
  GI50: > 100 µM (inactive)
XF498
  GI50: > 100 µM (inactive)
DMS-273
  GI50: > 100 µM (inactive)
M19-MEL
  GI50: > 100 µM (inactive)
HOP-18
  GI50: > 100 µM (inactive)
DMS-114
  GI50: > 100 µM (inactive)
LXFL 529
  GI50: > 100 µM (inactive)
RXF 631
  GI50: > 100 µM (inactive)

## O=S(=O)(c1ccccc1)C1CN2OC1(S(=O)(=O)c1ccccc1)CC21CCCCC1 (centres undefined)
KM-20L2
  GI50: > 100 µM (inactive)
XF498
  GI50: 32.3 µM (inactive)
DMS-273
  GI50: 82.6 µM (inactive)
M19-MEL
  GI50: > 100 µM (inactive)
DMS-114
  GI50: > 100 µM (inactive)
LXFL 529
  GI50: > 100 µM (inactive)
RXF 631
  GI50: > 100 µM (inactive)

## Nc1ccccc1C(=O)C(Br)C(Br)c1ccc2c(c1)OCO2 (centres undefined)
SNB-78
  GI50: 24.3 µM (inactive)
KM-20L2
  GI50: 17.2 µM (inactive)
XF498
  GI50: 16.7 µM (inactive)
DMS-273
  GI50: 15.1 µM (inactive)
M19-MEL
  GI50: 17.8 µM (inactive)
HOP-18
  GI50: 16.7 µM (inactive)
DMS-114
  GI50: 18.2 µM (inactive)
LXFL 529
  GI50: 16.7 µM (inactive)

## COc1cc2c(cc1OC)C(CC(=O)NN=C(C)C)NCC2 (centres undefined)
SNB-78
  GI50: > 100 µM (inactive)
KM-20L2
  GI50: > 100 µM (inactive)
XF498
  GI50: 96.6 µM (inactive)
DMS-273
  GI50: > 100 µM (inactive)
M19-MEL
  GI50: > 100 µM (inactive)
HOP-18
  GI50: > 100 µM (inactive)
DMS-114
  GI50: > 100 µM (inactive)
LXFL 529
  GI50: > 100 µM (inactive)

## O=C1C2C(C(=O)N1c1ccccc1)C1(Br)c3ccccc3C2(Br)C2C(=O)N(c3ccccc3)C(=O)C21 (centres undefined)
SNB-78
  GI50: 12.5 µM (inactive)
KM-20L2
  GI50: 24.5 µM (inactive)
XF498
  GI50: 29.2 µM (inactive)
DMS-273
  GI50: 11.7 µM (inactive)
M19-MEL
  GI50: > 31.6 µM (inactive)
HOP-18
  GI50: 18.1 µM (inactive)
DMS-114
  GI50: > 31.6 µM (inactive)
LXFL 529
  GI50: 7.62 µM (inactive)
RXF 631
  GI50: > 100 µM (inactive)

## O=C(Nc1cccc([N+](=O)[O-])c1)/C(=N\NC(=O)c1ccncc1)c1nc2ccc([N+](=O)[O-])cc2nc1O
SNB-78
  GI50: > 100 µM (inactive)
DMS-114
  GI50: 13.9 µM (inactive)
LXFL 529
  GI50: 35.6 µM (inactive)

## N#CC(C(=O)/C(=N/NC(=O)c1ccccc1O)C(C#N)c1ccc(Cl)cc1)c1ccc(Cl)cc1 (centres undefined)
SNB-78
  GI50: 19.5 µM (inactive)
KM-20L2
  GI50: 13.7 µM (inactive)
XF498
  GI50: 13.5 µM (inactive)
M19-MEL
  GI50: 14.1 µM (inactive)
HOP-18
  GI50: 11.5 µM (inactive)
DMS-114
  GI50: 23.8 µM (inactive)
LXFL 529
  GI50: 12.6 µM (inactive)

## COC(=O)C1CC/C(=N/C2c3ccccc3-c3ccccc32)N1 (centres undefined)
SNB-78
  GI50: > 100 µM (inactive)
KM-20L2
  GI50: > 100 µM (inactive)
XF498
  GI50: > 100 µM (inactive)
DMS-273
  GI50: > 100 µM (inactive)
M19-MEL
  GI50: > 100 µM (inactive)
HOP-18
  GI50: > 100 µM (inactive)
DMS-114
  GI50: 43.8 µM (inactive)
LXFL 529
  GI50: > 100 µM (inactive)
RXF 631
  GI50: > 100 µM (inactive)

## CC(C)(C)C1CCC(CI)(N=[N+]=[N-])CC1 (centres undefined)
SNB-78
  GI50: > 100 µM (inactive)
KM-20L2
  GI50: > 100 µM (inactive)
XF498
  GI50: 42.5 µM (inactive)
DMS-273
  GI50: > 100 µM (inactive)
M19-MEL
  GI50: 99.1 µM (inactive)
HOP-18
  GI50: > 100 µM (inactive)
DMS-114
  GI50: > 100 µM (inactive)
LXFL 529
  GI50: > 100 µM (inactive)

## Cc1[nH]c(=O)nc(N/N=C/c2ccc(O)cc2)c1C(=O)Nc1ccc(Cl)cc1
SNB-78
  GI50: > 100 µM (inactive)
KM-20L2
  GI50: > 100 µM (inactive)
DMS-273
  GI50: > 100 µM (inactive)
M19-MEL
  GI50: > 100 µM (inactive)
HOP-18
  GI50: > 100 µM (inactive)
DMS-114
  GI50: > 100 µM (inactive)
LXFL 529
  GI50: > 100 µM (inactive)
RXF 631
  GI50: > 100 µM (inactive)

## N#CC(C(=O)/C(=N\NC(N)=O)C(C#N)c1ccccc1)c1ccccc1 (centres undefined)
SNB-78
  GI50: > 100 µM (inactive)
KM-20L2
  GI50: > 100 µM (inactive)
DMS-273
  GI50: > 100 µM (inactive)
LXFL 529
  GI50: > 100 µM (inactive)
RXF 631
  GI50: > 100 µM (inactive)

## N#Cc1ccc2cc3c(cc2c1)OCO3
SNB-78
  GI50: > 100 µM (inactive)
KM-20L2
  GI50: > 100 µM (inactive)
DMS-273
  GI50: 95.5 µM (inactive)
M19-MEL
  GI50: > 100 µM (inactive)
DMS-114
  GI50: > 100 µM (inactive)
LXFL 529
  GI50: > 100 µM (inactive)
RXF 631
  GI50: > 100 µM (inactive)

## CC(C)N(C(C)C)P(OCCC#N)OC1CC(n2cnc3c(=O)[nH]cnc32)OC1COC(=O)NCCCCCCNC(=O)OC(C)(C)c1ccc(-c2ccccc2)cc1 (centres undefined)
SNB-78
  GI50: 30.5 µM (inactive)
KM-20L2
  GI50: 43.2 µM (inactive)
DMS-273
  GI50: 17.4 µM (inactive)
M19-MEL
  GI50: 21.5 µM (inactive)
HOP-18
  GI50: 92 µM (inactive)
DMS-114
  GI50: 21.8 µM (inactive)
LXFL 529
  GI50: 17.5 µM (inactive)

## COc1ccccc1NC(=O)CC(=O)n1nc(C)c(/N=N/c2ccccc2F)c1C
SNB-78
  GI50: 17.3 µM (inactive)
KM-20L2
  GI50: > 100 µM (inactive)
XF498
  GI50: 40 µM (inactive)
DMS-273
  GI50: > 100 µM (inactive)
M19-MEL
  GI50: > 100 µM (inactive)
HOP-18
  GI50: > 100 µM (inactive)
DMS-114
  GI50: > 100 µM (inactive)
LXFL 529
  GI50: > 100 µM (inactive)

## CNC(N)NC
SNB-78
  GI50: > 100 µM (inactive)
KM-20L2
  GI50: > 100 µM (inactive)
XF498
  GI50: > 100 µM (inactive)
DMS-273
  GI50: > 100 µM (inactive)
M19-MEL
  GI50: > 100 µM (inactive)
HOP-18
  GI50: > 100 µM (inactive)
DMS-114
  GI50: > 100 µM (inactive)
LXFL 529
  GI50: > 100 µM (inactive)

## COc1ccc2c(c1)CCC(OS(=O)(=O)CC13CCC(CC1=O)C3(C)C)C2=O (centres undefined)
KM-20L2
  GI50: 19.5 µM (inactive)
XF498
  GI50: 31.2 µM (inactive)
DMS-273
  GI50: 26.4 µM (inactive)
M19-MEL
  GI50: 34.2 µM (inactive)
HOP-18
  GI50: 30.1 µM (inactive)
DMS-114
  GI50: 27.5 µM (inactive)
LXFL 529
  GI50: 29.8 µM (inactive)

## C/C1=N\[N-]C(=O)c2ccccc2C(=O)N/N=C(\C)c2cccc1n2.O=[N+]([O-])[O-].[Zn+2]
SNB-78
  GI50: > 100 µM (inactive)
KM-20L2
  GI50: > 100 µM (inactive)
HOP-18
  GI50: > 100 µM (inactive)
DMS-114
  GI50: > 100 µM (inactive)
LXFL 529
  GI50: 44.2 µM (inactive)

## CSc1ccc2c(cc1=O)C(NC(=O)c1ccccc1)CCc1cc(O)c(O)c(O)c1-2 (centres undefined)
SNB-78
  GI50: 6.79 µM (inactive)
KM-20L2
  GI50: 1.81 µM (inactive)
DMS-273
  GI50: 26.9 µM (inactive)
M19-MEL
  GI50: 4.94 µM (inactive)
HOP-18
  GI50: > 100 µM (inactive)
DMS-114
  GI50: 26.2 µM (inactive)
LXFL 529
  GI50: 23.4 µM (inactive)

## COc1cc2c(cc1OC)C(O)[C@H](Br)C(C)(C)O2 (some centres undefined)
KM-20L2
  GI50: > 100 µM (inactive)
XF498
  GI50: > 100 µM (inactive)
DMS-273
  GI50: > 100 µM (inactive)
M19-MEL
  GI50: > 100 µM (inactive)
HOP-18
  GI50: > 100 µM (inactive)
DMS-114
  GI50: > 100 µM (inactive)
LXFL 529
  GI50: > 100 µM (inactive)

## CCN(CC)CCNc1ccc2nnn3c4ccc(C)cc4c(=O)c1c23
SNB-78
  GI50: 10.9 µM (inactive)
KM-20L2
  GI50: 6.32 µM (inactive)
M19-MEL
  GI50: 14.6 µM (inactive)
DMS-114
  GI50: 9.12 µM (inactive)
LXFL 529
  GI50: 12 µM (inactive)
RXF 631
  GI50: 5.28 µM (inactive)

## NC(=O)c1cccc([N+](=O)[O-])c1
SNB-78
  GI50: > 100 µM (inactive)
KM-20L2
  GI50: > 100 µM (inactive)
XF498
  GI50: > 100 µM (inactive)
DMS-273
  GI50: > 100 µM (inactive)
M19-MEL
  GI50: > 100 µM (inactive)
DMS-114
  GI50: > 100 µM (inactive)
LXFL 529
  GI50: > 100 µM (inactive)

## Cn1cnnc1Sc1c([N+](=O)[O-])ncn1C
SNB-78
  GI50: 45.9 µM (inactive)
XF498
  GI50: > 100 µM (inactive)
DMS-273
  GI50: > 100 µM (inactive)
HOP-18
  GI50: 13.5 µM (inactive)
DMS-114
  GI50: > 100 µM (inactive)
LXFL 529
  GI50: 20 µM (inactive)
RXF 631
  GI50: > 100 µM (inactive)

## CC1=C2C(=O)C(C)(C)C=C2C(=O)[C@](C)(O)C12CC2 [DEHYDROILLUDIN M]
SNB-78
  GI50: 0.522 µM (active)
KM-20L2
  GI50: 0.527 µM (active)
XF498
  GI50: 0.664 µM (active)
DMS-273
  GI50: 0.282 µM (active)
M19-MEL
  GI50: > 0.953 µM (active)
HOP-18
  GI50: > 1 µM (active)
LXFL 529
  GI50: 0.698 µM (active)
